Measured values taken from patent US20060069132A1, “Azolecarboxamide herbicides” (priority 2004, published 2006).

How the values were obtained:
[1] = system: barnyardgrass; assay: Test A pre-/postemergence herbicide test; format: in vivo, Echinochloa crus-galli
Method in brief: (§1)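 Sandy loam soil given preemergence directed spray; plants at 2 to 10 cm, one- to two-leaf stage, sprayed to runoff postemergence, compounds in non-phytotoxic solvent with surfactant. Injury rated visually versus untreated controls after about ten greenhouse days, 0 (no effect) to 100 (complete control); dash means not tested.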

[2] = system: giant foxtail; assay: Test A pre-/postemergence herbicide test; format: in vivo, Setaria faberi
Method in brief: as §1

[3] = system: redroot pigweed; assay: Test A pre-/postemergence herbicide test; format: in vivo, Amaranthus retroflexus
Method in brief: as §1

[4] = system: bermudagrass; assay: Test C pre-/postemergence herbicide test; format: in vivo, Cynodon dactylon; conditions: for Plant response rating, Bermudagrass: preemergence
Method in brief: (§2)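 Preemergence: seeds planted and treated with compound in non-phytotoxic solvent with surfactant; postemergence: plants at 2 to 18 cm (1- to 4-leaf stage) sprayed likewise. Kept in greenhouse 12 to 14 days, then visually rated against controls, 0 (no effect) to 100 (complete control).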

[5] = system: cocklebur; assay: Test C pre-/postemergence herbicide test; format: in vivo, Xanthium strumarium; conditions: for Plant response rating, Cocklebur: preemergence
Method in brief: as §2

[6] = system: woolly cupgrass; assay: Test C pre-/postemergence herbicide test; format: in vivo, Eriochloa villosa; conditions: preemergence
Method in brief: as §2

[7] = system: goosegrass; assay: Test C pre-/postemergence herbicide test; format: in vivo, Eleusine indica; conditions: preemergence
Method in brief: as §2

[8] = system: kochia; assay: Test C pre-/postemergence herbicide test; format: in vivo, Kochia scoparia; conditions: preemergence
Method in brief: as §2

[9] = system: lambsquarters; assay: Test C pre-/postemergence herbicide test; format: in vivo, Chenopodium album; conditions: preemergence
Method in brief: as §2

[10] = system: morningglory; assay: Test C pre-/postemergence herbicide test; format: in vivo, Ipomoea coccinea; set-up: key to Plant response rating, Morningglory: 0 = no effect, 100 = complete control; conditions: preemergence
Method in brief: as §2

[11] = system: smallflower umbrella sedge; assay: Test C flooded paddy test; format: in vivo, Cyperus difformis
[12] = system: ducksalad; assay: Test C flooded paddy test; format: in vivo, Heteranthera limosa
[13] = Postemergence, 500 g ai/ha, 0 to 100 scale, 0 no effect, 100 complete control
[14] = Postemergence, 2000 g ai/ha, 0 to 100 scale, 0 no effect, 100 complete control
[15] = Preemergence, 2000 g ai/ha, visual rating, 0 to 100 scale (0 no effect, 100 complete control)
[16] = preemergence, 500 g ai/ha, visual injury, 0 to 100 scale (0 no effect, 100 complete control)
[17] = 125 g ai/ha, scale 0 (no effect) to 100 (complete control), visual, 12 to 14 days
[18] = Preemergence, 500 g ai/ha, scale 0 to 100, 0 no effect, 100 complete control
[19] = 500 g ai/ha, scale 0 to 100 (0 no effect, 100 complete control), visual, 12 to 14 days
[20] = 62 g ai/ha, scale 0 to 100 (0 no effect, 100 complete control)
[21] = 125 g ai/ha, scale 0 to 100 (0 no effect, 100 complete control)
[22] = 250 g ai/ha, scale of 0 to 100, 0 is no effect, 100 is complete control
[23] = 500 g ai/ha, visual rating after 12 to 14 days, scale 0 to 100 (0 no effect, 100 complete control)

CCc1nc(C(C)(C)C)sc1C(=O)Nc1cccc(C(=O)NCC2CC2)n1 [Compound 215]
85: Pigweed plant response rating [3, 15] | Plant response rating, Bermudagrass ([4]; 250 g ai/ha, scale 0-100)
35: Barnyardgrass plant response rating [1, 15]
25: Plant response rating, Barnyardgrass [1, 14] | Foxtail, Giant plant response rating [2, 13]
60: Cocklebur plant response rating [5, 18] | Ducksalad plant response rating [12, 22]
70: Pigweed plant response rating [3, 13] | Plant response rating, Bermudagrass [4, 17] | Sedge, Umbrella plant response rating [11, 22]
100: Bermudagrass plant response rating [4, 18] | Plant response rating, Goosegrass [7, 19] | Plant response rating, Kochia ([8]; 62 g ai/ha, scale 0 to 100) | Plant response rating, Kochia [8, 17] | Plant response rating, Kochia ([8]; 250 g ai/ha, scale 0-100) | Plant response rating, Kochia [8, 19] | Plant response rating, Lambsquarters ([9]; 62 g ai/ha, scale 0 to 100) | Plant response rating, Lambsquarters [9, 17] | Plant response rating, Lambsquarters ([9]; 250 g ai/ha, scale 0-100) | Plant response rating, Lambsquarters [9, 19]
50: Foxtail, Giant plant response rating [2, 16] | Plant response rating, Cupgrass, Woolly [6, 19]
80: Plant response rating, Pigweed [3, 14] | Plant response rating, Goosegrass ([7]; 250 g ai/ha, scale 0-100) | Plant response rating, Ducksalad [12, 23]
40: Plant response rating, Foxtail, Giant [2, 14] | Plant response rating, Bermudagrass ([4]; 62 g ai/ha, scale 0 to 100, 0 no effect, 100 complete control) | Plant response rating, Cupgrass, Woolly ([6]; 250 g ai/ha, scale 0-100) | Plant response rating, Goosegrass [7, 17] | Plant response rating, Morningglory [10, 19] | Sedge, Umbrella plant response rating [11, 20] | Sedge, Umbrella plant response rating [11, 21] | Ducksalad plant response rating [12, 20] | Ducksalad plant response rating [12, 21]
10: Plant response rating, Cupgrass, Woolly [6, 17]
15: Barnyardgrass plant response rating [1, 16]
0: Barnyardgrass plant response rating [1, 13] | Plant response rating, Cocklebur ([5]; 62 g ai/ha, scale 0 to 100) | Plant response rating, Cocklebur [5, 17] | Plant response rating, Cocklebur ([5]; 250 g ai/ha, scale 0-100) | Plant response rating, Cupgrass, Woolly ([6]; 62 g ai/ha, scale 0 to 100) | Plant response rating, Goosegrass ([7]; 62 g ai/ha, scale 0 to 100) | Plant response rating, Morningglory ([10]; 62 g ai/ha, scale 0 to 100) | Plant response rating, Morningglory [10, 17] | Plant response rating, Morningglory ([10]; 250 g ai/ha, scale 0-100)
30: Pigweed plant response rating [3, 16]
75: Foxtail, Giant plant response rating [2, 15]
90: Plant response rating, Sedge, Umbrella [11, 23]
